Like-named read-outs stand apart in the source and are kept apart here.
Key:
[1] = system: MCF7 (breast) cancer cell line; test: MTT antiproliferation, MCF7; type: cell-based, human; conditions: for IC50: Homo sapiens, MCF7, 72 h, read-out: IC50 (µM) ± SEM MCF7; for SI (selectivity index) MCF7: IC50 of RPE1/IC50 of cancer cell line
Experimental: (§1) Antiproliferation properties of the targeted agents were investigated by the standard MTT technique against diverse human cancer cell lines [MCF7 (breast), HCT116 (colon), A431 (skin squamous) and PaCa2 (pancreatic)][67] (Table 1, Supplementary Figs. S48‒S51).
(§2) Cells were seeded at concentration of 30000 cells per well in fresh complete growth medium in 96-well tissue culture microtiter plates for 24 h. […] 0.5% DMSO was used as negative control. Triplicate wells were prepared for each individual dose. After 72 h of incubation, medium was aspirated, 40 μl MTT salt (2.5 mg ml^-1) was added to each well and incubated for further 4 h at 37 °C. To stop the reaction and dissolve the formed crystals, 150 μl of 10% sodium dodecyl sulfate (SDS) in deionized water was added to each well and incubated overnight at 37 °C.
(§3) Data were collected as mean values for experiments performed in triplicates for each individual dose which had been measured by MTT assay. […] The cell surviving fraction was calculated according to the following equation.
(§4) Surviving fraction = OpticaldensityO.D.oftreatedcellsO.D.ofcontrolcells
(§5) Statistical calculations for determination of the mean and standard error mean values were determined by SPSS 16 software.

[2] = system: HCT116 (colon) cancer cell line; test: MTT antiproliferation, HCT116; type: cell-based, human; conditions: for IC50: Homo sapiens, HCT-116, 72 h, read-out: IC50 (µM) ± SEM HCT116; for SI (selectivity index) HCT116: IC50 of RPE1/IC50 of cancer cell line
Experimental: as §1, §2, §3, §4, §5

[3] = system: SARS-CoV-2 (hCoV-19/Egypt/NRC-03/2020); test: Vero-E6 cell viral infection model, anti-SARS-CoV-2 IC50 (CPE, crystal violet); type: cell-based; conditions: for IC50: Severe acute respiratory syndrome coronavirus 2, Vero C1008; for SI = CC50/IC50: Vero-E6, SARS-CoV-2
[4] = system: PaCa2 (pancreatic) cancer cell line; test: MTT antiproliferation, PaCa-2; type: cell-based, human; conditions: for IC50: Homo sapiens, read-out: IC50 (µM) ± SEM PaCa-2; for SI (selectivity index) PaCa-2: IC50 of RPE1/IC50 of cancer cell line
Experimental: as §1
Cells were suspended in DMEM medium for MCF7, A431, PaCa-2 and McCoy’s 5A for HCT116 in addition to 1% antibiotic–antimycotic mixture (10000 μg ml^-1 potassium penicillin, 10000 μg ml^-1 streptomycin sulfate and 25 μg ml^-1 amphotericin B), 10% fetal bovine serum and 1% L-glutamine at 37 °C, under 5% CO2 and 95% humidity. Cells were seeded at concentration of 30000 cells per well in fresh complete growth medium in 96-well tissue culture microtiter plates for 24 h. Media was aspirated, fresh complete medium was added and cells were incubated with different concentrations of the tested compound to give a final concentration of [50, 25, 12.5 and 6.25 μM “in addition to 3.125, 1.56 and 0.78 μM in case of high potent analogues”). 0.5% DMSO was used as negative control. Triplicate wells were prepared for each individual dose. After 72 h of incubation, medium was aspirated, 40 μl MTT salt (2.5 mg ml^-1) was added to each well and incubated for further 4 h at 37 °C. To stop the reaction and dissolve the formed crystals, 150 μl of 10% sodium dodecyl sulfate (SDS) in deionized water was added to each well and incubated overnight at 37 °C. The absorbance was then measured at 570 nm and a reference wavelength of 595 nm.
as §3, §4
(§6) Statistical calculations for determination of the mean and standard error mean values were determined by SPSS 16 software. The observed anti-proliferative properties are presented in Table 1 (Supplementary Figs. S48‒S52).

[5] = target: BChE (Homo sapiens, UniProt P06276); test: BChE inhibition (DTNB, butyrylthiocholine iodide)
Sequence of BChE (P06276 29-602, species assumed): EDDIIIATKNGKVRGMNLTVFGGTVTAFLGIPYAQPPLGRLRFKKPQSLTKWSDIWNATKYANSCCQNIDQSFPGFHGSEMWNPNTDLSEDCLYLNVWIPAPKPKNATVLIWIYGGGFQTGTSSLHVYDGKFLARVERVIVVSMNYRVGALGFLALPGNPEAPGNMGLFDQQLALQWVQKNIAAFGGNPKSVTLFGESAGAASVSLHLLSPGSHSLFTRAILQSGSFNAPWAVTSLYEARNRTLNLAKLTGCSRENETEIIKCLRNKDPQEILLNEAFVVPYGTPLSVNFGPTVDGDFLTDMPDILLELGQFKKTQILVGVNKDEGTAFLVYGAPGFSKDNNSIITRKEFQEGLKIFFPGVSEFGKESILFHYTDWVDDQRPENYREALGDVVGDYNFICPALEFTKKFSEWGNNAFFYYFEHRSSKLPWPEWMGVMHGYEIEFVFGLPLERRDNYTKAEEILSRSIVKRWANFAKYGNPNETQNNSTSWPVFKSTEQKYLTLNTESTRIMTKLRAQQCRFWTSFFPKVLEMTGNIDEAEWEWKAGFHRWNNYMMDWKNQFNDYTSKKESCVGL

[6] = target: T1, EGFR (Homo sapiens, UniProt P00533); type: cell-based; conditions: western blot, MCF7, compound at its MTT IC50; for EGFR RQ (relative quantification): control RQ 3.4461
T1 construct: Western blot technique was considered for EGFR and VEGFR-2 properties determination; endogenous in cells; host or cells: MCF7 (breast cancer cell line)
T1 sequence (P00533 25-1210): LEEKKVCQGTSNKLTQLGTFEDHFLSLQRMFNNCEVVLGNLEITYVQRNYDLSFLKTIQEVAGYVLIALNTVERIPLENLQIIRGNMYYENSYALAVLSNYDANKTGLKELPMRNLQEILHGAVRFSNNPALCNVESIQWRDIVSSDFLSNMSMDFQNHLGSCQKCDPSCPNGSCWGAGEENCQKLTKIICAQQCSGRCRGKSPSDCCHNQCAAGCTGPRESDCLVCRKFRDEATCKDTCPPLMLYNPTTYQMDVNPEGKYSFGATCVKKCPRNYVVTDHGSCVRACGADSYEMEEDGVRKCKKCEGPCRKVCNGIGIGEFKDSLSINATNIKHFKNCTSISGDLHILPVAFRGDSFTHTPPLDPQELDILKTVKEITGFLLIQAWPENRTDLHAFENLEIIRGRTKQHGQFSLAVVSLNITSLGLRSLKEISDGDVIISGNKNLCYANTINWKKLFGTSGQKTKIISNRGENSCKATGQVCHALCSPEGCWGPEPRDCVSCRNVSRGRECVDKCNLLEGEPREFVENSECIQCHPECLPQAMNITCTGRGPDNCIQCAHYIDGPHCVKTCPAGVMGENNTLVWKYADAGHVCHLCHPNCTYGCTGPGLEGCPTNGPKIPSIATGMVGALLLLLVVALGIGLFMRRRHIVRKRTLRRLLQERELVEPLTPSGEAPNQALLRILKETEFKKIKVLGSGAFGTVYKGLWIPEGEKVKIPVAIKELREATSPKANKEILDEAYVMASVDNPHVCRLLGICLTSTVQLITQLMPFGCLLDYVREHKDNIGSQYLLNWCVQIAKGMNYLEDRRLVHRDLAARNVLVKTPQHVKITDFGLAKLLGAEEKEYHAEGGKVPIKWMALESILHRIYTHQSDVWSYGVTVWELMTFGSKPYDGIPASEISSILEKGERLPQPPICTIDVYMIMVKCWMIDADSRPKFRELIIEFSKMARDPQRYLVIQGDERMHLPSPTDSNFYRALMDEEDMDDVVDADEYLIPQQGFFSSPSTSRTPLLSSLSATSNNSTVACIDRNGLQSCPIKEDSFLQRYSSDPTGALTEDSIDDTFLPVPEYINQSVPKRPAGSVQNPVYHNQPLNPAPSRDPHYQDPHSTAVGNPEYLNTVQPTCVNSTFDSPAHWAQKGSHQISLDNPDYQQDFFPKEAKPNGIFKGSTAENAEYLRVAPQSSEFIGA
Description: (§7) The western blot technique was applied utilizing the IC50 observed for each respective agent synthesized during MTT assay[85],[86]. Consideration of multi-targeted inhibitory properties investigation is based in the fact that cancer initiation and proliferation sometimes utilizes many receptors or signaling pathways.
(§8) Western blot technique was considered for EGFR and VEGFR-2 properties determination utilizing the IC50 observed of each respective agent synthesized during MTT assay against MCF7 (breast) cancer cell line. All the studies were conducted according to the manufacturer’s instruction.^10,^11

[7] = target: T2, VEGFR-2 (Homo sapiens, UniProt P35968); type: cell-based; conditions: western blot, MCF7, compound at its MTT IC50; for VEGFR-2 RQ (relative quantification): control RQ 3.2634
T2 construct: Western blot technique was considered for EGFR and VEGFR-2 properties determination; endogenous in cells; host or cells: MCF7 (breast cancer cell line)
T2 sequence (P35968 20-1356): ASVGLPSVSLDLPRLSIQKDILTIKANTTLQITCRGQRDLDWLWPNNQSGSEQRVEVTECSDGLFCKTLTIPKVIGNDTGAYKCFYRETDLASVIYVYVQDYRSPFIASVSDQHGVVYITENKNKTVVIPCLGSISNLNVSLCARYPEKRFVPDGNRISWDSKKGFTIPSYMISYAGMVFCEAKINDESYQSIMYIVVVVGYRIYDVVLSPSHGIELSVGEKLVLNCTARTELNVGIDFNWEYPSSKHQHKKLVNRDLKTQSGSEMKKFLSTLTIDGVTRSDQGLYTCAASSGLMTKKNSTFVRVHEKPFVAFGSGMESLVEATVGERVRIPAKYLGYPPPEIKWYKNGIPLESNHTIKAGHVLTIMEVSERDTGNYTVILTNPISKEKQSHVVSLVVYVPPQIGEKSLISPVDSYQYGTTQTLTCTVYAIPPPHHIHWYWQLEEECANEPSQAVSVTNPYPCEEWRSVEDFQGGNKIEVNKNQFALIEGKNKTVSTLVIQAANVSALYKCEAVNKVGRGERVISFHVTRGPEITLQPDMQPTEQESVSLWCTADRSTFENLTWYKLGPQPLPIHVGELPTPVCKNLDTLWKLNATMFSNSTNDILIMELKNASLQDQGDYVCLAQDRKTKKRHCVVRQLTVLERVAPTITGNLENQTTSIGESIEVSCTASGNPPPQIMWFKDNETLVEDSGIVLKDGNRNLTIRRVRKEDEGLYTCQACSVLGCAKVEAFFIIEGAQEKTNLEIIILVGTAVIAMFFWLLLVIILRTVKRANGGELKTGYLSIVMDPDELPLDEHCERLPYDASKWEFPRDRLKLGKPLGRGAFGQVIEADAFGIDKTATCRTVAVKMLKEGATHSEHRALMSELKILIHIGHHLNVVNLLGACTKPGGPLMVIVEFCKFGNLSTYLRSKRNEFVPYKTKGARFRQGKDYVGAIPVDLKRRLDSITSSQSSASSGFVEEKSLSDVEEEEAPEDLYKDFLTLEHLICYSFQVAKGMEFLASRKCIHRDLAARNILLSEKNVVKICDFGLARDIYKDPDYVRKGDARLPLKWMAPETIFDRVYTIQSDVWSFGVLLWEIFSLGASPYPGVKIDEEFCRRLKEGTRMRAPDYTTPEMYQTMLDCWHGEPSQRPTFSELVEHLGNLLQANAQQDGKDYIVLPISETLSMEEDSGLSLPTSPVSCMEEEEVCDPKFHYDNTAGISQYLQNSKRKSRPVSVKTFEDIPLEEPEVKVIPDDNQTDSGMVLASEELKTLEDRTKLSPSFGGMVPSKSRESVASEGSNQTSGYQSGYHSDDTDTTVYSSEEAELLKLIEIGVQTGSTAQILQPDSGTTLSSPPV
Description: as §7, §8

[8] = MTT cytotoxicity assay (CC50); type: cell-based; conditions: African green monkey, VERO-E6 cells
Experimental: The cytotoxic activity of the compounds was tested in VERO-E6 cells by using the 3-(4,5-dimethylthiazol-2-yl)-2,5-diphenyltetrazolium bromide (MTT) method with minor modifications. Briefly, the cells were seeded in 96 well-plates […] at a density of 3 x 10^5 cell/ml and incubated for 24 h at 37 °C in 5% CO2. After 24 h, cells were treated with various concentrated of the tested compounds in triplicates. 24 h later, the supernatant was discarded and cell monolayers were washed with sterile 1x phosphate buffer saline (PBS) 3 times and MTT solution (20 µl of 5 mg/ml) was added to each well and incubated at 37 °C for 4 h followed by medium aspiration. In each well, the formed formazan crystals were dissolved with 200 µl of acidified isopropanol (0.04 M HCl in absolute isopropanol = 0.073 ml HCl in 50 ml isopropanol). Eventually, the absorbance was measured at λmax 570 nm using the Anthos Zenyth 200rt plate reader (Anthos Labtec Instruments, Heerhugowaard, Netherlands). The cytotoxicity of various concentrations compared to the untreated cells was determined using nonlinear regression analysis by plotting log inhibitor versus normalized response.^12^-14

[9] = target: AChE (Homo sapiens, UniProt P22303); test: AChE inhibition (DTNB, acetylthiocholine); type: biochemical; conditions: for IC50: read-out: AChE (IC50, μM) ± SD
Sequence of AChE (P22303 32-614): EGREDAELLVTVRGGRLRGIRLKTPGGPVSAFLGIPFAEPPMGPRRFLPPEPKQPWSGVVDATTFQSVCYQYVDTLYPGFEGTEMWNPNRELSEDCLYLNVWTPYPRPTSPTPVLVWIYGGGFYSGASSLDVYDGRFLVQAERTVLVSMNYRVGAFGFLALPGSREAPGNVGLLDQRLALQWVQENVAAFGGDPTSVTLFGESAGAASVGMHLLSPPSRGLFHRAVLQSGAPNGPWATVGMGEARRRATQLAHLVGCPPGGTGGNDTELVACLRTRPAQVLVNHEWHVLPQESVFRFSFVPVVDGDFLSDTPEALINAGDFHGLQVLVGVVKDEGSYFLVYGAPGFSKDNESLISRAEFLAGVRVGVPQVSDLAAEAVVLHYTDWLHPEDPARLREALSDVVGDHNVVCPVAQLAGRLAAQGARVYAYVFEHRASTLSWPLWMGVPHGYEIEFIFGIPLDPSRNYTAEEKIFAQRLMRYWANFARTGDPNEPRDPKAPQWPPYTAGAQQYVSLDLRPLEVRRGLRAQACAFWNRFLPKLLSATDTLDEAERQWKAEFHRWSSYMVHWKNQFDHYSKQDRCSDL
Experimental: All compounds were dissolved in MeOH.

[10] = system: RPE1 (normal human immortalized retinal pigment epithelial cell line); test: MTT toxicity towards normal cells, RPE1; type: cell-based; conditions: RPE-1, read-out: IC50 (µM) ± SEM RPE1
Experimental: The safety of the synthesized agents against non-cancer/normal RPE1 (retinal pigment epithelium) cell line was assessed (Table 1, Supplementary Fig. S52). The SI (selectivity index) for the tested compounds against RPE1 cell line confirms the safety towards non-cancer cells. […] Compound 6d and 6h which are also of high anti-PaCa2 show remarkable SI values (SI = > 3.8, > 3.6, respectively).
The agents synthesized were also tested against RPE1 (normal human immortalized retinal pigment epithelial cell line) cell (in DMEM-F12 medium) to determine the toxicity/selectivity towards normal cells relative to the cancer cell lines utilized.
as §6

[11] = system: A431 (skin squamous) cancer cell line; test: MTT antiproliferation, A431; type: cell-based, human; conditions: for IC50: Homo sapiens; for SI (selectivity index) A431: IC50 of RPE1/IC50 of cancer cell line
Experimental: as §1, §2, §3, §4, §5

[12] = Vero-E6, 72 h, reduction of virus-induced CPE, read-out: IC50 (µM) SARS-CoV-2
[13] = log of observed IC50 in μM, read-out: Observed log(IC50, μM) (SARS-CoV-2) (converted)
[14] = A-431, 72 h, read-out: IC50 (µM) ± SEM A431
[15] = A-431, read-out: Observed log(IC50, μM) (A431) (converted)

Compound	IC50 [1] [µM]	SI (selectivity index) MCF7 [1]	IC50 [2] [µM]	SI (selectivity index) HCT116 [2]	IC50 [3, 12] [µM]	IC50 [3, 13] [µM]	SI = CC50/IC50 [3]	IC50 ([4]; PaCa-2, 72 h) [µM]	SI (selectivity index) PaCa-2 [4]	IC50 [5] [µM]	EGFR % Inhibition [6] [%]	EGFR RQ (relative quantification) [6]	VEGFR-2 % Inhibition [7] [%]	VEGFR-2 RQ (relative quantification) [7]	CC50 at 24 h [8] [µM]	SI = IC50 (AChE)/IC50 (BChE) [9]	IC50 [9] [µM]	IC50 [10] [µM]	IC50 [11, 14] [µM]	IC50 [11, 15] [µM]	also measured
CCS(=O)(=O)N1C/C(=C\c2ccccc2)C(=O)C2(C1)C(c1ccccc1)CN(C)C21C(=O)Nc2ccc(Cl)cc21 (stereo not shown) [Compound 6d, (E)-5″-Benzylidene-5-chloro-1″-(ethylsulfonyl)-1′-methyl-4′-phenyldispiro[indoline-3,2′-pyrrolidine-3′,3″-piperidine]-2,4″-dione]	6.92 ± 0.55	> 7.2	5.18 ± 0.61	> 9.7	171	171	101.1	13.1 ± 1.1	> 3.8	34.4 ± 2	62.9	1.2774	63.8	1.181	17300	1.2	41 ± 7.03	> 50	4.96 ± 0.25	4.96	SI (selectivity index) A431 [11]: > 10.1
CCS(=O)(=O)N1C/C(=C\c2ccc(F)cc2)C(=O)C2(C1)C(c1ccc(F)cc1)CN(C)C21C(=O)Nc2ccc(Cl)cc21 (stereo not shown) [Compound 6h, (E)-5-Chloro-1″-(ethylsulfonyl)-5″-(4-fluorobenzylidene)-4′-(4-fluorophenyl)-1′-methyldispiro[indoline-3,2′-pyrrolidine-3′,3″-piperidine]-2,4″-dione]	4.69 ± 0.44	> 10.7	4.6 ± 0.18	> 10.9	7.69	7.69	34.1	14 ± 0.73	> 3.6	8.07 ± 1.47	67.2	1.13	66.2	1.104	262	0.8	6.3 ± 0.97	> 50	6.04 ± 0.26	6.04	SI (selectivity index) A431 [11]: > 8.3
CCN(CC)CCNC(=O)c1c(C)[nH]c(/C=C2\C(=O)Nc3ccc(F)cc32)c1C [Sunitinib, reference compound]																					IC50 ([4]; MTT, 72 h, PaCa-2): 16.9 ± 0.95 µM
CN1CC(c2ccc(Cl)cc2)C2(CN(S(C)(=O)=O)C/C(=C\c3ccc(Cl)cc3)C2=O)C12C(=O)Nc1ccccc12 (stereo not shown) [Compound 6i, (E)-5″-(4-Chlorobenzylidene)-4′-(4-chlorophenyl)-1′-methyl-1″-(methylsulfonyl)dispiro[indoline-3,2′-pyrrolidine-3′,3″-piperidine]-2,4″-dione]	5.01 ± 0.29	2.9	5.47 ± 0.32	2.7	113	113	2.1	9.04 ± 0.62	1.6	13.6 ± 2.12	68.7	1.077	64.2	1.1684	235	1.3	18.2 ± 1.48	14.8 ± 1.57	4.4 ± 0.49	4.4	SI (selectivity index) A431 [11]: 3.4

— paper PMC9380671, “Development of spiro-3-indolin-2-one containing compounds of antiproliferative and anti-SARS-CoV-2 properties” (Scientific Reports, 2022)
